Reference: US20260183274A1, “PDK1 REGULATORY COMPOUND AND COMPOSITION CONTAINING THE SAME” (PROVIBIO CO., LTD., priority 2024, published 2026)

System: T cells isolated from mouse spleens
Assay: T cell proliferation inhibition (CFSE flow cytometry, anti-CD3/anti-CD28 stimulation)
Type: cell-based
Conditions: mouse spleen T cells, 3 days; for inhibition at 0.01 µM / inhibition at 0.1 µM / inhibition at 1 µM / inhibition at 10 µM / inhibition at 30 µM / inhibition at 50 µM: Mus musculus, T-cell, 72 h, read-out: Proliferation inhibition rate (%); for inhibition at 50 µM: compound 50 μM
Description: To verify the T cell proliferation inhibitory effect of the compounds according to the present invention, the following experiment was performed based on flow cytometry analysis using carboxyfluorescein diacetate succinimidyl ester (CFSE), a fluorescent dye that binds to intracellular molecules via covalent bonds.
Spleens were extracted from 7-week-old C57BL/6 mice, ground, and then separated into single cells using a strainer (40 μm pore size, SPL). Red blood cells were removed using ACK (Ammonium-Chloride-Potassium) lysis buffer to isolate white blood cells.
Finally, using a MACS Magnetic Stand and LS column, T cells were isolated from the spleen.
The T cells isolated from the spleen were resuspended in 1 mL of free medium (RPMI-1640+200 U/mL penicillin+200 μg/mL streptomycin), and 0.3 μL of CFSE (10 mM) was added. The mixture was incubated at 37° C. for 5 minutes.
Free medium (10 mL) was added to stop the reaction, and the cells were centrifuged to obtain the cell pellet.
RPMI 1640 medium containing 10% FBS, 100 U/mL penicillin, 100 μg/mL streptomycin, and resuspended the cells. The cells were then seeded into a 96-well plate at a density of 2×10^5 cells per well and activated with CD3 and CD28 antibodies (0.5 μg/mL each) to activate T cells.
The compound diluted in DMSO was added at concentrations of 10 nM, 100 nM, 1 μM, 10 μM, 30 μM, and 50 μM, with three wells per concentration, and cultured at 37° C. and 5% CO2 for three days. The cells were then analyzed using a FACS Canto instrument.
The proliferation inhibition rate (%) was calculated using the following formula: […]

SMILES	inhibition at 0.01 µM (compound 10 nM) [%]	inhibition at 0.1 µM (compound 100 nM) [%]	inhibition at 1 µM (compound 1 μM) [%]	inhibition at 10 µM (compound 10 μM) [%]	inhibition at 30 µM (compound 30 μM) [%]	inhibition at 50 µM [%]	Proliferation inhibition rate (%) (compound 10 nM, listed as KP-63, 0.01 µM)	Proliferation inhibition rate (%) (compound 100 nM, listed as KP-63, 0.1 µM)	Proliferation inhibition rate (%) (compound 1 μM, listed as KP-63, 1 µM)	Proliferation inhibition rate (%) (compound 10 μM, listed as KP-63, 10 µM)	Proliferation inhibition rate (%) (compound 10 nM, listed as KP-64, 0.01 µM)	Proliferation inhibition rate (%) (compound 100 nM, listed as KP-64, 0.1 µM)	Proliferation inhibition rate (%) (compound 1 μM, listed as KP-64, 1 µM)	Proliferation inhibition rate (%) (compound 10 μM, listed as KP-64, 10 µM)	Proliferation inhibition rate (%) (compound 30 μM, listed as KP-64, 30 µM)
C[C@@H](C(=O)O)N(C=O)CCCCCCCCCCCCNC(=O)c1cccnc1N [Compound 130, N-(12-(2-aminonicotinamido)dodecyl)-N-formylalanine]	-4.33	-5.22	13.6	85.4	100	100									
CN1CCN(CCCCCCCCCCCCNC(=O)c2ccccc2C(=O)NC2CCCCC2)CC1 [Compound 191, N1-Cyclohexyl-N2-(12-(4-methylpiperazin-1-yl)dodecyl)phthalamide]	0	0	7.39	93.3	100	100									
CN1CCN(CCCCCCCCCCCCNC(=O)c2ccccc2-c2ncc[nH]2)CC1 [Compound 192, 2-(1H-imidazol-2-yl)-N-(12-(4-methylpiperazin-1-yl)dodecyl)benzamide]	-3.25	-0.84	0.96	99.8	100	100									
CN1CCN(CCCCCCCCCCCCNC(=O)c2ccccc2-n2cccc2)CC1 [Compound 193, N-(12-(4-methylpiperazin-1-yl)dodecyl)-2-(1H-pyrrol-1-yl)benzamide]	5.02	4.87	12	100	100	100									
CN1CCN(CCCCCCCCCCCCNC(=O)c2ccccc2-c2ccccc2)CC1 [Compound 194, N-(12-(4-methylpiperazin-1-yl)dodecyl)-[1,1′-biphenyl]-2-carboxamide]	-4.09	-2.4	-1.68	100	100	100									
CN1CCN(CCCCCCCCCCCCNC(=O)c2ccnc(-c3ccccn3)c2)CC1 [Compound 195, N-(12-(4-methylpiperazin-1-yl)dodecyl)-[2,2′-bipyridine]-4-carboxamide]	1.77	2.81	-7.83	100	100	100									
CN1CCN(CCCCCCCCCCCCNC(=O)c2ccccc2Cc2ccccc2)CC1 [Compound 196, 2-Benzyl-N-(12-(4-methylpiperazin-1-yl)dodecyl)benzamide]	5.21	4.05	12.3	100	100	100									
CN1CCN(CCCCCCCCCCCCNC(=O)c2cccc(N)c2I)CC1 [Compound 197, 3-Amino-2-iodo-N-(12-(4-methylpiperazin-1-yl)dodecyl)benzamide]	7.81	10.3	16.4	98	100	100									
CN1CCN(CCCCCCCCCCCCNC(=O)c2ccnc(Cl)c2Cl)CC1 [Compound 198, 2,3-Dichloro-N-(12-(4-methylpiperazin-1-yl)dodecyl)isonicotinamide]	5.35	9.41	20.1	100	100	100									
CN1CCN(CCCCCCCCCCCCNC(=O)c2ccncc2Cl)CC1 [Compound 199, 3-Chloro-N-(12-(4-methylpiperazin-1-yl)dodecyl)isonicotinamide]	0	0	0	40	100	100									
COc1ncccc1C(=O)NCCCCCCCCCCCCN1CCN(C)CC1 [Compound 200, 2-Methoxy-N-(12-(4-methylpiperazin-1-yl)dodecyl)nicotinamide]	0	0	0	80	100	100									
CN1CCN(CCCCCCCCCCCCNC(=O)c2c(Cl)cncc2Cl)CC1 [Compound 201, 3,5-Dichloro-N-(12-(4-methylpiperazin-1-yl)dodecyl)isonicotinamide]	7.24	6.66	8.54	78.4	100	100									
Cc1ccc(C(=O)NCCCCCCCCCCCCN2CCN(C)CC2)nc1 [Compound 202, 5-Methyl-N-(12-(4-methylpiperazin-1-yl)dodecyl)picolinamide]	4.05	13.2	19	100	100	100									
CN1CCN(CCCCCCCCCCCCNC(=O)c2ccc(F)cn2)CC1 [Compound 203, 5-Fluoro-N-(12-(4-methylpiperazin-1-yl)dodecyl)picolinamide]	-4.49	1.16	6.8	100	100	100									
COc1ccc(C(=O)NCCCCCCCCCCCCN2CCN(C)CC2)nc1 [Compound 204, 5-methoxy-N-(12-(4-methylpiperazin-1-yl)dodecyl)picolinamide]	-2.6	-0.14	12.3	95	100	100									
Cc1nccn1-c1cccc(C(=O)NCCCCCCCCCCCCN2CCN(C)CC2)c1 [Compound 207, 3-(2-methyl-1H-imidazol-1-yl)-N-(12-(4-methylpiperazin-1-yl)dodecyl)benzamide]	-5.35	-3.91	-3.04	100	100	100									
CN1CCN(CCCCCCCCCCCCNC(=O)c2ccc(-c3ncn[nH]3)cc2)CC1 [Compound 208, N-(12-(4-methylpiperazin-1-yl)dodecyl)-4-(1H-1,2,4-triazol-5-yl)benzamide]	2.46	-0.58	10.6	100	100	100									
CN1CCN(CCCCCCCCCCCCNC(=O)c2ccncc2N)CC1 [Compound 209, 3-Amino-N-(12-(4-methylpiperazin-1-yl)dodecyl)isonicotinamide]	-1.45	1.59	18.8	84.5	100	100									
CN1CCN(CCCCCCCCCCCCNC(=O)c2cccnc2O)CC1 [Compound 210, 2-Hydroxy-N-(12-(4-methylpiperazin-1-yl)dodecyl)nicotinamide]	-4.34	-3.18	2.75	42.8	100	100									
CN1CCN(CCCCCCCCCCCCNC(=O)c2cnccc2N)CC1 [Compound 211, 4-Amino-N-(12-(4-methylpiperazin-1-yl)dodecyl)nicotinamide]						100	−2.17	−0.87	9.70	90.01					
CN1CCN(CCCCCCCCCCCCNC(=O)c2cnccc2N)CC1 [Compound 212, 4-Amino-N-(12-(4-methylpiperazin-1-yl)dodecyl)nicotinamide]											−2.89	−3.91	−4.34	20.55	71.78
CN1CCN(CCCCCCCCCCCCNC(=O)c2ccc(C(F)(F)F)cc2N)CC1 [Compound 213, 2-Amino-N-(12-(4-methylpiperazin-1-yl)dodecyl)-4-(trifluoromethyl)benzamide]	-0.14	6.37	8.54	100	100	100									
